# Laboratory results reported in PubChem BioAssay AID2060489 (Molecular Pharmacology Branch, DTP, NCI, 2025).
# System: 922993-354-T-J3-PDC complex spheroids, viability
# Test: Anticancer human tumor 922993-354-T-J3-PDC patient-derived endometrial carcinoma cell line growth inhibition [GQUAD]
# Conditions: for IC50: curve of first compound; for viability, T/C: stronger effect = lower value
# From the text: DNA G-quadruplex Stabilizer Agents in Combinations in Complex Spheroids
# A high-throughput screen of multi-cell type tumor spheroids was designed to identify active combinations of DNA G-quadruplex stabilizer agents and targeted small molecules. Complex spheroids include a stromal component modeled by human endothelial cells (HUVEC) and fibroblasts modeled by human mesenchymal stem cells (MSCs). The concentration ranges selected for each drug and investigational agent were based upon clinically achievable concentrations if the clinical Cmax of the agent was known.
# Compounds. The drugs and investigational agents: pidnarulex (CX-5461; NSC782164), APTO-253 (NSC789042), BRACO-19 (NSC847499), peposertib (NSC802822), ceralasertib (NSC780249), elimusertib (NSC800525), camonsertib (NSC841442), AZD-1390 (NSC803789), olaparib (NSC753686), talazoparib (NSC767125), ART-558 (NSC835418), sotorasib (NSC818433), MRTX-1133 (NSC836407), SN-38 (NSC673596), topotecan (NSC609699), etoposide (NSC141540), doxorubicin (NSC123127), gemcitabine (NSC613327), 5-fluorouracil (NSC19893), paclitaxel (NSC125973), vemurafenib (NSC761431), panobinostat (NSC761190), R-306465 (JNJ-16241199; NSC773264), adavosertib (NSC754352), TP-3654 (NSC805149), carboplatin (NSC241240), KSQ-4279 (NSC840948), and staurosporine (NSC755774) were obtained from the National Cancer Institute (NCI) Developmental Therapeutics Program Chemical Repository (34). The FDA-approved anticancer drug set is available from the NCI Developmental Therapeutics Program. […] The stock solutions were prepared in dimethyl sulfoxide (DMSO, Sigma-Aldrich, St. Louis, MO, cat. D2650) at 800-fold the tested concentration and stored at -70 degrees C prior to their use. All drugs and investigational agents were tested over a range starting from a high concentration at or near the clinical Cmax and decreasing in half-log increments. If the clinical Cmax for an agent had not been determined, the highest concentration tested was 10 microM.
# 2.3 Cell Culture. All cells were maintained in an incubator at 37 degrees C and 5% CO2 with 95% humidity. The PDC lines were cultured according to standard operating procedures established by the NCI PDMR. All PDCs were thawed and cultured in Matrigel-coated flasks prepared with a working solution of 1X Ham's F-12 nutrient mix, without supplementation (Invitrogen, cat. 11765054), 100 U/mL penicillin-streptomycin (Invitrogen, cat. 15140122), and 2.5% Matrigel (Corning Inc., cat. 354248) for the first three passages. The 857933-349-R-J2-PDC line was cultured in 6C/Colon 1B media, which includes advanced DMEM/F-12 (Thermo Fisher Scientific, cat. 12634028), 10 mM HEPES (Thermo Fisher Scientific, cat. 15630080), 1X GlutaMAX supplement (Thermo Fisher Scientific, cat. 35050061), 0.1 mg/mL primocin (InvivoGen, cat. ant-pm-2), 10% defined fetal bovine serum, heat inactivated (HyClone Laboratories Inc., cat. SH30070.03HI), 50% L-WRN conditioned media (ATCC, cat. CRL-3276), 1.25 mM N-Acetyl-L-cysteine (Sigma-Aldrich, cat. A9165), 10 mM nicotinamide (Sigma-Aldrich, cat. N0636), 1X B-27 supplement (Thermo Fisher Scientific, cat. 17504044), 1X N-2 supplement (Thermo Fisher Scientific, cat. 17502048), 10 microM Y-27632 dihydrochloride (Tocris Bioscience, cat. 1254), and 50 ng/mL human EGF recombinant protein (Thermo Fisher Scientific, cat. PHG0311). The 485176-168-R4-J1-PDC line was cultured in Panc media, which includes all 6C/Colon 1B media components plus 100 ng/mL human FGF-10 (Thermo Fisher Scientific, cat. 100-26), 500 nM SB-431542 (Selleckchem, cat. S1067), and gastrin (Tocris, cat. 3006).
# […]
# [1] = second compound 0.0316 µM, first compound 0.0316 µM
# [2] = second compound 0.0316 µM, first compound 0.1 µM
# [3] = second compound 0.0316 µM, first compound 0.316 µM
# [4] = second compound 0.0316 µM, first compound 1 µM
# [5] = second compound 0.0316 µM, first compound 3.16 µM
# [6] = second compound 0.0316 µM, first compound 10 µM
# [7] = second compound 0.1 µM, first compound 0.0316 µM
# [8] = second compound 0.1 µM, first compound 0.1 µM
# [9] = second compound 0.1 µM, first compound 0.316 µM
# [10] = second compound 0.1 µM, first compound 1 µM
# [11] = second compound 0.1 µM, first compound 3.16 µM
# [12] = second compound 0.1 µM, first compound 10 µM
# [13] = second compound 0.316 µM, first compound 0.0316 µM
# [14] = second compound 0.316 µM, first compound 0.1 µM
# [15] = second compound 0.316 µM, first compound 0.316 µM
# [16] = second compound 0.316 µM, first compound 1 µM
# [17] = second compound 0.316 µM, first compound 3.16 µM
# [18] = second compound 0.316 µM, first compound 10 µM
# [19] = second compound 1 µM, first compound 0.0316 µM
# [20] = second compound 1 µM, first compound 0.1 µM
# [21] = second compound 1 µM, first compound 0.316 µM
# [22] = second compound 1 µM, first compound 1 µM
# [23] = second compound 1 µM, first compound 3.16 µM
# [24] = second compound 1 µM, first compound 10 µM
# [25] = second compound 3.16 µM, first compound 0.0316 µM
# [26] = second compound 3.16 µM, first compound 0.1 µM
# [27] = second compound 3.16 µM, first compound 0.316 µM
# [28] = second compound 3.16 µM, first compound 1 µM
# [29] = second compound 3.16 µM, first compound 3.16 µM
# [30] = second compound 3.16 µM, first compound 10 µM
# [31] = second compound 10 µM, first compound 0.0316 µM
# [32] = second compound 10 µM, first compound 0.1 µM
# [33] = second compound 10 µM, first compound 0.316 µM
# [34] = second compound 10 µM, first compound 1 µM
# [35] = second compound 10 µM, first compound 3.16 µM
# [36] = second compound 10 µM, first compound 10 µM
# 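Also: spheroids exposed to compounds for seven days.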
# 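For viability, T/C in this document: 100% = DMSO vehicle control viability.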
compound,measurement,setting,value
CC(C)(O)C1CCC(Nc2ccc3ncc(-c4cccc(C(F)(F)F)c4)n3n2)CC1 (centres undefined) + Cc1[nH]c2ccc(F)cc2c1-c1nc2c3cccnc3c3ncccc3c2[nH]1,IC50,second compound 0.0316 µM,> 10 µM
same,IC50,second compound 0.1 µM,> 10 µM
same,IC50,second compound 0.316 µM,> 10 µM
same,IC50,second compound 1 µM,> 10 µM
same,IC50,second compound 3.16 µM,> 10 µM
same,IC50,second compound 10 µM,> 10 µM
same,"viability, T/C",[1],96.5%
same,"viability, T/C",[2],93.5%
same,"viability, T/C",[3],76.6%
same,"viability, T/C",[4],84.5%
same,"viability, T/C",[5],72.9%
same,"viability, T/C",[6],66.5%
same,"viability, T/C",[7],95.6%
same,"viability, T/C",[8],77%
same,"viability, T/C",[9],99.1%
same,"viability, T/C",[10],77.3%
same,"viability, T/C",[11],85%
same,"viability, T/C",[12],77.2%
same,"viability, T/C",[13],99.7%
same,"viability, T/C",[14],87.4%
same,"viability, T/C",[15],91.2%
same,"viability, T/C",[16],108%
same,"viability, T/C",[17],81.6%
same,"viability, T/C",[18],62.6%
same,"viability, T/C",[19],86.5%
same,"viability, T/C",[20],104%
same,"viability, T/C",[21],92.6%
same,"viability, T/C",[22],87.5%
same,"viability, T/C",[23],77.7%
same,"viability, T/C",[24],66.4%
same,"viability, T/C",[25],95.2%
same,"viability, T/C",[26],80.2%
same,"viability, T/C",[27],111%
same,"viability, T/C",[28],79.8%
same,"viability, T/C",[29],94.7%
same,"viability, T/C",[30],67%
same,"viability, T/C",[31],105%
same,"viability, T/C",[32],105%
same,"viability, T/C",[33],84.6%
same,"viability, T/C",[34],99.8%
same,"viability, T/C",[35],72.8%
same,"viability, T/C",[36],61.6%
CC(C)n1c(=O)n(C)c2cnc3cc(F)c(-c4ccc(OCCCN5CCCCC5)nc4)cc3c21 + Cc1[nH]c2ccc(F)cc2c1-c1nc2c3cccnc3c3ncccc3c2[nH]1,IC50,second compound 0.0316 µM,> 10 µM
same,IC50,second compound 0.1 µM,> 10 µM
same,IC50,second compound 0.316 µM,> 10 µM
same,IC50,second compound 1 µM,> 10 µM
same,IC50,second compound 3.16 µM,> 10 µM
same,IC50,second compound 10 µM,> 10 µM
same,"viability, T/C",[1],110%
same,"viability, T/C",[2],123%
same,"viability, T/C",[3],113%
same,"viability, T/C",[4],91.4%
same,"viability, T/C",[5],77.3%
same,"viability, T/C",[6],71.3%
same,"viability, T/C",[7],116%
same,"viability, T/C",[8],95.3%
same,"viability, T/C",[9],103%
same,"viability, T/C",[10],96.2%
same,"viability, T/C",[11],72.9%
same,"viability, T/C",[12],60.3%
same,"viability, T/C",[13],91.8%
same,"viability, T/C",[14],124%
same,"viability, T/C",[15],115%
same,"viability, T/C",[16],114%
same,"viability, T/C",[17],88.2%
same,"viability, T/C",[18],62.9%
same,"viability, T/C",[19],118%
same,"viability, T/C",[20],83.4%
same,"viability, T/C",[21],131%
same,"viability, T/C",[22],112%
same,"viability, T/C",[23],88.5%
same,"viability, T/C",[24],75.9%
same,"viability, T/C",[25],100%
same,"viability, T/C",[26],89.5%
same,"viability, T/C",[27],91.5%
same,"viability, T/C",[28],95.1%
same,"viability, T/C",[29],84.8%
same,"viability, T/C",[30],80.8%
same,"viability, T/C",[31],98.9%
same,"viability, T/C",[32],93.7%
same,"viability, T/C",[33],94%
same,"viability, T/C",[34],97.4%
same,"viability, T/C",[35],85.5%
same,"viability, T/C",[36],73.8%
